Columns and labels:
[1] = format: physicochemical; settings: Tris-hydrochloric acid buffer (pH 7.5) 50 mmol/L, magnesium chloride 5 mmol/L, evaluation compound 1 µmol/L, 37°C, 60 minutes, average of duplicate
In short: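 Conversion of compounds to brexpiprazole measured in buffer at 37°C, in duplicate: compound added after 3 min pre-incubation of reaction solution, and reaction stopped at 0 or 60 min with acetonitrile/isopropanol (4:1) containing internal standards. Quantified against calibration samples at 0.01, 0.1 and 1 µmol/L.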

in vitro = format: cell-based, human; settings: human; 300 µmol/L, about 24 hours, PMA-differentiated HL-60 cells, LDH activity; no-treatment group 0%, cell lysis buffer-treated group 100%; read-out: cytotoxicity (%) Evaluation compound results
Description: (§1) An HL-60 cell line (human acute promyelocytic leukemia cells) was successively cultured in RPMI 1640 containing 20% fetal bovine serum (FBS) at 37°C in 95% atmosphere/5% CO2. Before evaluation, the cells were pre-cultured for about 72 hours in the presence of 10 nM phorbol 12-myristate 13-acetate (PMA) to induce macrophage-like differentiation.
(§2) Evaluation compounds were dissolved in DMSO to obtain 30 mmol/L solutions (or suspensions). Each DMSO solution was diluted 100-fold with RPMI 1640 containing 2% FBS (final concentration of the compound: 300 µmol/L) to obtain a treatment solution. The culture supernatant of the differentiated HL-60 cells was removed, and each treatment solution was added and cultured for about 24 hours, followed by cytotoxicity evaluation.
(§3) The activity of lactate dehydrogenase (LDH) was measured in the treatment solutions exposed to the cells for about 24 hours by using a commercial kit (Cytotoxicity LDH Assay Kit-WST, Dojindo Laboratories) and a plate reader (Tecan Infinite M1000). The obtained measurement values were used to calculate cytotoxicity (%) as comparison values for each evaluation compound-treated group, with the no-treatment group taken as 0% and the cell lysis buffer-treated group taken as 100%. The test was conducted in triplicate in three wells each, and the average values were used as adopted values.

HL-60 cells = test: in vitro; format: cell-based, human; settings: 300 µmol/L, about 24 hours; for cytotoxicity (%) Evaluation compound results: PMA-differentiated HL-60 cells, LDH activity, no-treatment group 0%, cell lysis buffer-treated group 100%
Description: as §1, §2, §3

[2] = Dog irritation study (subcutaneous administration); format: in vivo, dogs; settings: stated in the cytotoxicity method, no details
Description: Male beagle dogs were purchased at the age of 5-7 months from Kitayama Labes Co., Ltd. and used in the experiment after acclimatization. The breeding environment was as follows: feeding: 250 g of solid feed once a day, water intake: unlimited, number of animals per cage: 1, temperature: 21-25°C, humidity: 50-70%, lighting time: 7:00-19:00. The test formulation was subcutaneously administered to dogs anesthetized with 25 mg/kg thiopental sodium using a plastic syringe at a dose of 10 mg/kg per formulation, changing the position on the back. […] The collected tissues were fixed in 10% neutral buffered formalin, and hematoxylin and eosin-stained specimens were prepared for histopathological examination.

Structure (SMILES)	Concentration of brexpiprazole formed [1] [nM]	Concentration of evaluation compound decreased [1] [nM]	cytotoxicity at 24 h, 300 µM (in vitro) [%]	cytotoxicity (%) Evaluation compound results (HL-60 cells) [%]	cytotoxicity compared with control compounds (in words) (HL-60 cells)	irritation when subcutaneously administered to dogs [2]
CC(=O)OCCCOP(=O)([O-])OC[N+]1(CCCCOc2ccc3ccc(=O)[nH]c3c2)CCN(c2cccc3sccc23)CC1 [EX 15, 3-acetoxypropyl ((4-(benzo[b]thiophen-4-yl)-1-(4-((2-oxo-1,2-dihydroquinolin-7-yl)oxy)butyl)piperazin-1-ium-1-yl)methyl)phosphate]	0	0	3			
CCCCCC(=O)OCOP(=O)([O-])OC[N+]1(CCCCOc2ccc3ccc(=O)[nH]c3c2)CCN(c2cccc3sccc23)CC1 [EX 16, (4-(benzo[b]thiophen-4-yl)-1-(4-((2-oxo-1,2-dihydroquinolin-7-yl)oxy)butyl)piperazin-1-ium-1-yl)methyl ((hexanoyloxy)methyl)phosphate]	0	10	17			
CCCCCCCCCC(=O)OCOP(=O)([O-])OC[N+]1(CCCCOc2ccc3ccc(=O)[nH]c3c2)CCN(c2cccc3sccc23)CC1 [EX 17, (4-(benzo[b]thiophen-4-yl)-1-(4-((2-oxo-1,2-dihydroquinolin-7-yl)oxy)butyl)piperazin-1-ium-1-yl)methyl ((decanoyloxy)methyl)phosphate]	0	70	8			
O=C(OCOP(=O)([O-])OC[N+]1(CCCCOc2ccc3ccc(=O)[nH]c3c2)CCN(c2cccc3sccc23)CC1)C1CCCCC1 [EX 18, (4-(benzo[b]thiophen-4-yl)-1-(4-((2-oxo-1,2-dihydroquinolin-7-yl)oxy)butyl)piperazin-1-ium-1-yl)methyl (((cyclohexanecarbonyl)oxy)methyl)phosphate]	0	-10	8			
O=C(OCOP(=O)([O-])OC[N+]1(CCCCOc2ccc3ccc(=O)[nH]c3c2)CCN(c2cccc3sccc23)CC1)OC1CCCCC1 [EX 19, (4-(benzo[b]thiophen-4-yl)-1-(4-((2-oxo-1,2-dihydroquinolin-7-yl)oxy)butyl)piperazin-1-ium-1-yl)methyl ((((cyclohexyloxy)carbonyl)oxy)methyl)phosphate]	0	-70	16			
CC(C)(C)[Si](C)(C)OCCCCOP(=O)([O-])OC[N+]1(CCCCOc2ccc3ccc(=O)[nH]c3c2)CCN(c2cccc3sccc23)CC1 [EX 60]	0	90		16		
CCOC(=O)CCCC(=O)OCOP(=O)([O-])OC[N+]1(CCCCOc2ccc3ccc(=O)[nH]c3c2)CCN(c2cccc3sccc23)CC1 [EX 68]	0	90	-6			
COCCn1nc(C(=O)OCOP(=O)([O-])OC[N+]2(CCCCOc3ccc4ccc(=O)[nH]c4c3)CCN(c3cccc4sccc34)CC2)c2ccccc21 [EX 82]	0	20		-2		
CCCCOCCOCCOP(=O)([O-])OC[N+]1(CCCCOc2ccc3ccc(=O)[nH]c3c2)CCN(c2cccc3sccc23)CC1 [EX 99]	0	0	-6			
COCCN(CCOC)P(=O)([O-])OC[N+]1(CCCCOc2ccc3ccc(=O)[nH]c3c2)CCN(c2cccc3sccc23)CC1 [EX 153]	0	-10		-7		
O=C(OC[N+]1(CCCCOc2ccc3ccc(=O)[nH]c3c2)CCN(c2cccc3sccc23)CC1)N1CCCCC1.[I-] [REX 4, 4-(benzo[b]thiophen-4-yl)-1-(4-((2-oxo-1,2-dihydroquinolin-7-yl)oxy)butyl)-1-(((piperidine-1-carbonyl)oxy)methyl)piperazin-1-ium iodide, reference compound]				83	stronger cytotoxicity than that of the Reference Example 3 compound	
CCCCCC(=O)OCn1c(=O)ccc2ccc(OCCCCN3CCN(c4cccc5sccc45)CC3)cc21 [Reference Example 3 compound, (7-(4-(4-(benzo[b]thiophen-4-yl)piperazin-1-yl)butoxy)-2-oxoquinolin-1(2H)-yl)methyl hexanoate]						showed irritation

Reference: patent EP4707284A1, “HETEROCYCLIC COMPOUND AND USE THEREOF” (Otsuka Pharmaceutical Co., Ltd., priority 2023, dated 2024)
